Assays:
Assay in all cases: relative viability (cell count relative to DMSO-treated control) (fraction of DMSO control); higher = more viable cells / less drug effect
[1] = system: MMACSF
Method: (§1)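 BRAF V600E/D melanoma cell lines were seeded in 96-well plates, treated in 4 replicates with seven doses (3.16 nM to 3.16 uM) of RAF/MEK inhibitors for 24, 48 or 72 h, and stained with Hoechst 33342 (nuclei) and DEVD-NucView488 caspase-3 substrate. Plates were imaged on an Operetta. Relative viability is the cell count normalised to a DMSO-treated control; apoptosis fraction is the fraction of NucView488-positive nuclei.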

[2] = system: COLO858
Method: as §1

[3] = system: MZ7MEL
Method: as §1

[4] = system: SKMEL28
Method: as §1

[5] = system: RVH421
Method: as §1

CCCS(=O)(=O)Nc1ccc(F)c(C(=O)c2c[nH]c3ncc(-c4ccc(Cl)cc4)cc23)c1F [Vemurafenib]
relative viability
Conditions	0.00316 µM	0.01 µM	0.0316 µM	0.1 µM	0.316 µM	1 µM	3.16 µM
[1], 24 h	0.923	0.887	0.976	1	0.89	0.9218	0.905
[1], 48 h	0.908	0.923	0.962	1	0.85	0.713	0.604
[1], 72 h	0.957	0.941	0.939	0.697	0.56	0.29	0.0882
[2], 24 h	0.782	1.02	1.05	0.988	0.916	0.824	0.703
[2], 48 h	0.926	1.02	1	0.933	0.574	0.362	0.215
[2], 72 h	1.21	1.18	1.31	1.15	0.68	0.393	0.127
[3], 24 h	0.982	1.11	1.08	1.08	1.15	1.1	0.938
[3], 48 h	1.04	1.09	1.07	1.07	0.955	0.667	0.54
[3], 72 h	1.29	1.39	1.19	0.871	0.587	0.367	0.349
[4], 48 h	0.828	1.18	1.18	1.07	0.973	0.71	0.542
[4], 72 h	0.955	0.88	0.947	0.922	0.651	0.491	0.39
[5], 24 h	0.8497	0.936	0.993	1	1.07	1.04	0.823
[5], 48 h	1.02	0.907	0.932	0.887	0.778	0.684	0.503
[5], 72 h	0.957	1.02	0.959	0.909	0.674	0.539	0.452

Cn1cnc2c(F)c(Nc3ccc(Br)cc3Cl)c(C(=O)NOCCO)cc21 [Selumetinib]
relative viability
Conditions	0.00316 µM	0.01 µM	0.0316 µM	0.1 µM	0.316 µM	1 µM	3.16 µM
[1], 24 h	1.11	1.02	1.022	1.05	0.989	1.04	1.06
[1], 48 h	0.907	1.01	0.88	0.743	0.748	0.664	0.533
[1], 72 h	0.924	0.759	0.563	0.449	0.344	0.21	0.141
[2], 24 h	0.844	1.09	1.24	1.12	1.01	0.937	0.856
[2], 48 h	0.983	1.05	1.06	0.702	0.455	0.374	0.315
[2], 72 h	0.974	1.05	0.843	0.545	0.427	0.342	0.28
[3], 24 h	1.03	1.13	1.11	1.07	1.07	0.997	0.809
[3], 48 h	1.01	1.01	1.04	0.797	0.508	0.504	0.492
[3], 72 h	1.14	1.06	0.58	0.328	0.349	0.308	0.31
[4], 48 h	0.799	1.31	1.43	1.12	0.964	0.852	0.604
[4], 72 h	1.06	0.975	0.804	0.543	0.449	0.419	0.337
[5], 24 h	0.975	0.995	1.032	1.03	1.09	1.02	0.919
[5], 48 h	1.04	0.884	0.795	0.721	0.659	0.658	0.593
[5], 72 h	1.01	0.988	0.849	0.657	0.566	0.511	0.488

CCCS(=O)(=O)Nc1ccc(F)c(C(=O)c2c[nH]c3ncc(Cl)cc23)c1F [PLX4720]
relative viability
Conditions	0.00316 µM	0.01 µM	0.0316 µM	0.1 µM	0.316 µM	1 µM	3.16 µM
[1], 24 h	1.02	0.9436	0.974	1.04	0.991	1.02	1.06
[1], 48 h	0.92	1.02	1.01	1.01	0.854	0.764	0.679
[1], 72 h	0.937	0.923	0.86	0.632	0.531	0.336	0.146
[2], 24 h	1.03	1.15	1.21	1.17	1.02	0.946	0.808
[2], 48 h	0.968	1.07	1.06	0.893	0.538	0.407	0.306
[2], 72 h	1.13	1.2	1.19	0.893	0.569	0.417	0.273
[3], 24 h	1.02	1.02	1.14	1.19	1.13	0.956	0.795
[3], 48 h	1.04	0.99	1.02	1.09	0.931	0.608	0.48
[3], 72 h	1.28	1.16	1.07	0.661	0.504	0.382	0.329
[4], 48 h	0.824	1.43	1.48	1.42	1.12	0.941	0.61
[4], 72 h	0.973	0.881	0.968	0.866	0.598	0.458	0.389
[5], 24 h	0.932	1.01	0.9915	1.05	1.054	0.981	0.909
[5], 48 h	1.03	0.881	0.948	0.939	0.732	0.673	0.541
[5], 72 h	0.978	1.03	1.01	0.89	0.678	0.569	0.483

Cc1ccc(NC(=O)c2cccc(C(C)(C)C#N)c2)cc1Nc1ccc2ncn(C)c(=O)c2c1 [AZ628]
relative viability
Conditions	0.00316 µM	0.01 µM	0.0316 µM	0.1 µM	0.316 µM	1 µM	3.16 µM
[1], 24 h	1.059	0.978	1	0.982	0.988	1	1.034
[1], 48 h	0.938	1.02	0.913	0.771	0.737	0.56	0.517
[1], 72 h	0.917	0.833	0.641	0.519	0.367	0.223	0.141
[2], 24 h	0.923	1.12	1.16	0.982	0.938	0.902	0.816
[2], 48 h	0.965	1.08	0.778	0.48	0.368	0.319	0.248
[2], 72 h	1.05	1.13	0.716	0.475	0.392	0.307	0.213
[3], 24 h	1.02	1.02	1.05	1.19	1.12	0.945	0.878
[3], 48 h	1.03	1.04	1	0.726	0.549	0.435	0.465
[3], 72 h	1.2	1.11	0.586	0.336	0.33	0.356	0.327
[4], 48 h	0.879	1.4	1.44	1.16	0.947	0.896	0.614
[4], 72 h	1.13	1.01	0.791	0.526	0.507	0.489	0.442
[5], 24 h	0.929	0.9636	1.05	1.06	1.02	0.993	0.908
[5], 48 h	1.06	0.944	0.81	0.666	0.696	0.65	0.544
[5], 72 h	0.956	0.915	0.741	0.58	0.537	0.47	0.412

CN(C)CCOc1ccc(-c2nc(-c3ccncc3)c(-c3ccc4c(c3)CC/C4=N\O)[nH]2)cc1
relative viability
Conditions	0.00316 µM	0.01 µM	0.0316 µM	0.1 µM	0.316 µM	1 µM	3.16 µM
[1], 24 h	1.03	0.999	0.9993	1.03	0.964	0.977	1.02
[1], 48 h	0.955	1.01	0.925	0.787	0.791	0.727	0.684
[1], 72 h	0.953	0.952	0.779	0.6	0.529	0.423	0.341
[2], 24 h	0.866	1.21	1.2	1	0.946	0.883	0.811
[2], 48 h	0.963	1.03	0.929	0.584	0.431	0.341	0.277
[2], 72 h	1.07	1.21	0.906	0.605	0.494	0.381	0.29
[3], 24 h	1.1	1.18	1.1	1.09	1.18	1.13	0.887
[3], 48 h	1.07	0.968	0.991	0.874	0.67	0.608	0.545
[3], 72 h	1.23	1.14	0.834	0.614	0.537	0.414	0.387
[4], 48 h	0.835	1.45	1.59	1.29	1.1	0.906	0.643
[4], 72 h	1.08	0.92	0.897	0.734	0.542	0.544	0.373
[5], 24 h	0.994	0.9379	1.04	1.034	1.01	1.02	0.929
[5], 48 h	1.07	0.849	0.803	0.689	0.672	0.638	0.513
[5], 72 h	0.983	0.995	0.872	0.702	0.641	0.575	0.542

Reference: the supplement of paper PMC4380931
